{"source": "patent US6365734B1", "about": "“Cucurbituril derivatives, their preparation methods and uses” (Pohang University of Science and Technology Foundation, priority 1999, dated 2002)", "key": {"[1]": {"experiment": "Binding constant by microcalorimeter (VP-ITC)", "conditions": "water/formic acid 1:1 by volume, 1.0 mM host", "protocol": "Distilled water and formic acid were mixed in a ratio of 1:1: by volume. Next, 1.0 mM of cucurbit[5]uril derivative was prepared with the diluted formic acid. 20.0 mM of aqueous solution containing ammonium ions, and positive ions of alkaline metals, such as lithium, sodium and potassium, was prepared. Then, the binding constants of the cucurbit[5]uril derivative with these ions were measured using a microcalorimeter (VP-ITC, manufactured by MicroCal). As a result, the cucurbit[5]uril derivative has a binding constant of 5.4×10^3M^−1 with ammonium ions, 3.3×10^2M^−1 with positive lithium ions, 4.5×10^3M^−1 with positive sodium ions, and 2.6×10^4M^−1 with positive potassium ions. The cucurbit[5]uril derivative can selectively bind with alkali metal ions, as well as with ammonium ions. The result confirms that cucurbituril derivatives can be used as ion sensors."}, "[2]": {"experiment": "Host-guest complex formation in water (NMR)", "type": "binding", "conditions": "guest 2,6-Bis(4,5-dihydro-1H-imidazol-2-yl)naphthalene dihydrochloride", "protocol": "5.80 mg of 2,6-Bis(4,5-dihydro-1H-imidazol-2-yl)naphthalene dihydrochloride and 5.0 mg of cucurbit[8]uril were dissolved in water.\n4.35 mg of 2,6-Bis(4,5-dihydro-1H-imidazol-2-yl)naphthalene dihydrochloride and 5.0 mg of cucurbit[7]uril were dissolved in water."}, "[3]": {"experiment": "Inclusion complex formation in water", "type": "binding", "conditions": "guest cyclen, heating then slow cooling", "protocol": "120.0 mg of cyclen tetrahydrochloride ([…] tetrahydrochloride) and 100.0 mg of cucurbit[8]uril were dissolved in water."}, "[4]": {"experiment": "Inclusion complex formation in water", "type": "binding", "conditions": "guest cyclam, heating then slow cooling", "protocol": "13.0 mg of cyclam tetrahydrochloride (1,4,8,11-tetraazacyclotetradecane tetrahydrochloride) and 10.0 mg of cucurbit[8]uril were dissolved in water."}, "[5]": {"experiment": "Complex formation with anti-cancer drug, drug carrier test (NMR)", "type": "binding", "conditions": "in water", "protocol": "The following example is for investigating the function of the cucurbituril derivatives obtained in Synthesis Examples 1 through 10, as a drug carrier. In the following example, cisplatin, an anti-cancer drug, was used.\n2.0 mg of Cis-dichloroethylenediamine platinum (II) and 2.0 mg of cucurbit[8]uril were dissolved in water."}, "[6]": {"experiment": "Ternary complex formation, amino acid sensing (NMR)", "type": "binding", "conditions": "methylviologen, tyrosine and host, D2O, heated", "protocol": "5.0 mM of methylviologendichloride solution, and 5.0 mM of tyrosine solution were prepared using D2O solvent. 0.25 ml of each solution was mixed with 2.1 mg of cucurbit[8]uril. Next, the mixture was heated until the color changed into yellow."}, "[7]": {"experiment": "Ternary complex formation, amino acid sensing (NMR)", "type": "binding", "conditions": "methylviologen, tryptophan and host, D2O, heated", "protocol": "5.0 mM of methylviologendichloride solution, and 5.0 mM of tryptophan solution were prepared using D2O solvent. 0.25 ml of each solution was mixed with 2.1 mg of cucurbit[8]uril. Next, the mixture was heated until the color changed into red."}, "[8]": {"experiment": "Ternary complex formation, nucleic acid base sensing (NMR)", "type": "binding", "conditions": "methylviologen, thymine and host, D2O, heated", "protocol": "5.0 mM of methylviologendichloride solution, and 5.0 mM of thymine solution were prepared using D2O solvent. 0.25 ml of each solution was mixed with 2.1 mg of cucurbit[8]uril. Next, the mixture was heated until the color changed into yellow."}, "[9]": {"experiment": "Complex formation with herbicide (NMR)", "type": "binding", "conditions": "methylviologen and host, D2O", "protocol": "Methylviologendichloride (so-called paraquat), a herbicide, was used. 5.0 mM of mehylbiologendichloride solution was prepared with D2O solvent. Next, cucurbit[8]uril was added to the solution."}, "[10]": {"experiment": "Organic dye removal from water, UV absorption of filtrate", "protocol": "30 mg of organic dye, Direct Red 5B (commercially available from Ciba-Geigy Co.) was dissolved in 150 ml of water to prepare an organic dye solution. To half the organic dye solution, 150 mg of cucurbit[7]uril was added and stirred for 30 minutes.\nThe precipitate was filtered, and UV absorption spectra were measured at λmax=510 nm on the filtrate and the remaining half of the organic dye solution which was not treated with the cucurbut[7]uril.\nR=UV absorption intensity of the dye solution treated with cucurbit[7]uril ×100/UV absorption intensity of the dye solution before the treatment with cucurbit[7]uril.\nThe following dyes were used: Reactive Blue HE-G (produced by Kyung-In Co.), Direct Solophenyl Violet 4BL (produced by Ciba-Geigy Co.), Reactive Navy Blue HE-R 150 (produced by Kyung-In Co.), Disperse Yellow E-3 (produced by LG Co.), Disperse T/Q Blue S-GL (produced by LG Co.) and Orange TGL (produced by Ciba-Geigy Co.)."}, "[11]": {"experiment": "Inclusion complex formation in water", "type": "binding", "conditions": "guest 1-aminoadamantane, addition of methanol", "protocol": "24.2 mg of 1-aminoadanmatane hydrochloride and 50.0 mg of cucurbi[7]uril were dissolved in water."}}}
{"compound": "O=C1N2CN3C(=O)N4CN5C(=O)N6CN7C(=O)N8CN9C(=O)N%10CN1C1C2N2CN%11C(=O)N(CN%12C(=O)N(CN%13C(=O)N(CN%14C(=O)N(CN1C2=O)C%10C9%14)C8C7%13)C6C5%12)C4C3%11", "note": "(stereo not shown) [cucurbit[5]uril]", "values": [{"measurement": "binding constant with ammonium ions", "setting": "[1]", "value": 5400, "unit": "M⁻¹"}, {"measurement": "binding constant with positive lithium ions", "setting": "[1]", "value": 330, "unit": "M⁻¹"}, {"measurement": "binding constant with positive potassium ions", "setting": "[1]", "value": 26000, "unit": "M⁻¹"}, {"measurement": "binding constant with positive sodium ions", "setting": "[1]", "value": 4500, "unit": "M⁻¹"}]}
{"compound": "O=C1N2CN3C(=O)N4CN5C(=O)N6CN7C(=O)N8CN9C(=O)N%10CN%11C(=O)N%12CN%13C(=O)N%14CN%15C(=O)N%16CN1C1C2N2CN%17C(=O)N(CN%18C(=O)N(CN%19C(=O)N(CN%20C(=O)N(CN%21C(=O)N(CN%22C(=O)N(CN%23C(=O)N(CN1C2=O)C%16C%15%23)C%14C%13%22)C%12C%11%21)C%10C9%20)C8C7%19)C6C5%18)C4C3%17", "note": "(stereo not shown) [cucurbit[8]uril]", "values": [{"measurement": "host-guest complex formation and stoichiometry", "setting": "[2]", "value": "quantitative formation of a 1:2 host-guest complex"}, {"measurement": "inclusion complex formation", "setting": "[3]", "value": "produced an inclusion complex"}, {"measurement": "inclusion complex formation", "setting": "[4]", "value": "produced an inclusion complex"}, {"measurement": "complex formation and stoichiometry (platinum compound : host)", "setting": "[5]", "value": "quantitative formation of a 2:1 complex"}, {"measurement": "complex formation and stoichiometry", "setting": "[6]", "value": "quantitative formation of a 1:1:1 complex"}, {"measurement": "complex formation and stoichiometry", "setting": "[7]", "value": "quantitative formation of a 1:1:1 complex"}, {"measurement": "complex formation and stoichiometry", "setting": "[8]", "value": "quantitative formation of a 1:1:1 complex"}, {"measurement": "complex formation and stoichiometry", "setting": "[9]", "value": "quantitative formation of a 1:1 complex"}]}
{"compound": "cucurbit[7]uril", "values": [{"measurement": "R", "setting": "[10]; Direct Red 5B, 510 nm, R = intensity after treatment ×100 / intensity before", "value": 1.7, "unit": "%"}, {"measurement": "R", "setting": "[10]; Direct Solophenyl Violet 4BL, 546 nm, R = intensity after ×100 / before", "value": 1.3, "unit": "%"}, {"measurement": "R", "setting": "[10]; Disperse T/Q Blue S-GL 200, 776 nm, R = intensity after ×100 / before", "value": 0.8, "unit": "%"}, {"measurement": "R", "setting": "[10]; Disperse Yellow E-3, 429 nm, R = intensity after ×100 / before", "value": 3.0, "unit": "%"}, {"measurement": "R", "setting": "[10]; Orange TGL, 419 nm, R = intensity after ×100 / before", "value": 5.4, "unit": "%"}, {"measurement": "R", "setting": "[10]; Reactive Blue HE-G, 626 nm, R = intensity after ×100 / before", "value": 0.3, "unit": "%"}, {"measurement": "R", "setting": "[10]; Reactive Blue HE-G, 662 nm, R = intensity after ×100 / before", "value": 0.3, "unit": "%"}, {"measurement": "R", "setting": "[10]; Reactive Navy Blue HE-R 150, 609 nm, R = intensity after ×100 / before", "value": 0.6, "unit": "%"}, {"measurement": "host-guest complex formation and stoichiometry", "setting": "[2]", "value": "quantitative formation of a 1:1 host-guest complex"}, {"measurement": "inclusion complex formation", "setting": "[11]", "value": "produced an inclusion complex"}]}
